Test results reported in patent US12275685B2, “Oligo-benzamide analogs and their use in cancer treatment” (Board of Regents, The University of Texas System, priority 2018, dated 2025).

Experiments:
[1] = biological target: T1, lipase activity of LIPA (Homo sapiens, UniProt P38571); experiment: Lipase activity assay; type: biochemical; conditions: SUM-159 cells
T1 construct: lipase activity of parental SUM-159 (WT) and SUM-159 cells with LIPA KO; endogenous in cells; host or cells: SUM-159 (parental)
Text: FIGS. 39A-N: (FIGS. 39A-E) Predicted binding mode of ERX-41 (colored in green) on the human lysosomal acid lipase (LAL, PDB code: 6V7N, LXXLL (SEQ ID NO: 1) domain colored in orange). (FIG. 39F) PDB structure of LAL protein showing relative positions of the catalytic domain (with H274Y MT) and the LXXLL (SEQ ID NO: 1) domain (L242P MT). (FIG. 39G) Evaluation of the effect of ERX-41 and lalistat (known lipase inhibitor) on lipase activity of parental SUM-159 (WT) and SUM-159 cells with LIPA KO. (FIG. 39H) Evaluation of basal lipase activity in parental SUM-159 (WT), SUM-159 cells with LIPA KO (KO), SUM-159 cells with LIPA KO and with reconstitution of either WT LIPA (KO+WT), H274Y MT-LIPA (KO+H274Y), DLXXLL (SEQ ID NO: 2) MT-LIPA (KO+DLXXLL (SEQ ID NO: 2)) or L242P MT-LIPA (KO+L242P). Protein expression of LAL and control vinculin in these cells are shown below (FIG. 391) Cellular lysates from described SUM-159 cells were incubated with biotinylated ERX-11 or biotinylated ERX-41 and then subject to a streptavidin column. Elutants were then evaluated for LIPA pulldown by western blotting. (FIG. 39J) Dose response curve to increasing concentrations of ERX-41 in described SUM-159 cells. (FIGS. 39K-M) Effect of vehicle or 1 μM ERX-41 on induction of UPR genes at the protein level (FIG. 39K) or RNA level (FIGS. 39L-M). […]

[2] = Tolerability of ERX-41 in mice; type: in vivo; conditions: daily oral or intraperitoneal, up to 200 mg/kg
Procedure: Additionally, ERX-41 was detectable within 1.5 h in established subcutaneous MDA-MB-231 xenograft tumors after oral or intraperitoneal administration (FIG. 35A). […] ERX-41 decreased tumor growth, as shown by extirpated tumor sizes at the end of study (FIG. 35C and FIG. 35E). […] The inventors validated the activity of ERX-41 in four distinct TNBC PDXs established in the mammary fat pad (FIGS. 35I-P).

[3] = test system: estrogen receptor-positive, estrogen receptor-negative and therapy resistant ERMT cells; experiment: MTT assay of TK41 on breast cancer cells; type: cell-based
Procedure: FIGS. 2A-2C show the potency of TK41 (IC50 from 50-500 nM) on estrogen receptor-positive (FIG. 2A), estrogen receptor-negative (FIG. 2B) and therapy resistant ERMT (FIG. 2C) cells determined by MTT assay.

[4] = test system: 22 human preclinical TNBC cell line models; experiment: CellTiter-Glo cell viability assay in TNBC cell lines; type: cell-based; conditions: 22 TNBC cell lines, read-out: IC50, CellTiter-Glo cell viability assays
Text: FIGS. 34A-C: Dose response curve of ERX-41 in multiple TNBC. cell lines using WST-1 assays (FIG. 34A) and CellTiter-Glo assays (FIG. 34B). […] Quantification of the number of dead cells over time seen with live cell imaging in MDAMB-231 and HMEC cells is shown.
To evaluate the generalizability of the inventors' findings, they evaluated ERX-41 in a large number of TNBC and ERa-positive cell lines.

[5] = test system: triple-negative breast cancer cells (TNBC); experiment: Growth inhibition of TNBC cells; type: cell-based
Text: FIGS. 10A & 10B show effects of TK208 against cancer cells.
TNBC is difficult to be treated and currently there are no good drugs available in the market.
In addition, another tris-benzmaide compound TK208 was synthesized and tested against breast cancer and ovarian cancer cell lines (FIGS. 10-15). […] These compounds (e.g., TK41, TK208, TK308 (FIG. 21), TK309 (FIG. 22), TK314, TK315) are extremely potent compounds that inhibit tumor growth and kill breast and ovarian cancer cells and as such, they are superb therapeutic candidates for such diseases.

T1 sequence (P38571 77-399): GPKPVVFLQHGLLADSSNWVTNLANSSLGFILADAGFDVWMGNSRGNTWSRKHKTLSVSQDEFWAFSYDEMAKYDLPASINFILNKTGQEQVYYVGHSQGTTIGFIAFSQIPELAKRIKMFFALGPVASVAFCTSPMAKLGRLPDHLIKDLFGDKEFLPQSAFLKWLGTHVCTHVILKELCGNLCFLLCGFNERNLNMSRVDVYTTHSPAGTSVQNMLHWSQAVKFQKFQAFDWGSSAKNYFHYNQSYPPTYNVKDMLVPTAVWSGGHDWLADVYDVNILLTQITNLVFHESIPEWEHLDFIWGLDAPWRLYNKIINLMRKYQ

CC(C)COc1cc(C(=O)Nc2ccc(C(=O)N[C@H]3CC[C@H](C)CC3)cc2OCC(C)C)ccc1NC(=O)c1ccc([N+](=O)[O-])c(OCCO)c1 [TK41]
effect on lipase activity of LIPA [1]: no inhibition of lipase activity
tolerability [2]: well tolerated
IC50 ([3]; ER-positive, ER-negative and therapy resistant ERMT cells, MTT assay): 50 to 500 nM
effect on endocrine therapy resistant breast cancer cells ([3]; endocrine therapy resistant breast cancer cells): very effective
IC50 [4]: < 250 nM
IC50 [5]: < 100 nM
